Data published in ChEMBL document CHEMBL5335865, “Macrocyclic Oxindole Peptide Epoxyketones-A Comparative Study of Macrocyclic Inhibitors of the 20S Proteasome” (ACS Med Chem Lett, 2024).
Active and inactive are the calls of the source.

Columns and labels:
[1] = target: T1, 20S proteasome (Homo sapiens) (UniProt P49721+P20618+P28074+P28062+P28065+P28072+P25786+P25787+P25788+P25789+P28066+P60900+O14818+Q8TAA3+P40306+A5LHX3+P49720+P28070+Q99436); assay: Inhibition of human 20S proteasome trypsin-like activity using Ac-RLR-AMC as a fluorogenic substrate at 130 uM measured every 20 seconds for 10 mins by fluorescence based assay; format: protein-complex assay
Chymotrypsin = Chymotrypsin (UniProt Q99895+P17538+P40313+Q6GPI1); assay: Inhibition of chymotrypsin (unknown origin) using Suc-LLVY-AMC as fluorogenic substrate at 130 uM measured every 20 seconds for 10 mins by fluorescence based assay; format: protein assay; conditions: Homo sapiens
[2] = target: Cathepsin B (Homo sapiens) (UniProt P07858); assay: Inhibition of human liver cathepsin B using Cbz-Arg-Arg-AMC as fluorogenic substrate at 130 uM measured every 20 seconds for 10 mins by fluorescence based assay
[3] = target: Calpain-2 catalytic subunit (Homo sapiens) (UniProt P17655); assay: Inhibition of m-calpain (unknown origin) using Suc-LLVY-AMC as fluorogenic substrate at 130 uM measured every 20 seconds for 10 mins by fluorescence based assay
[4] = target: T1, 20S proteasome (Homo sapiens); assay: Inhibition of human 20S proteasome PGPH-like activity using Cbz-LLE-AMC as a fluorogenic substrate at 130 uM measured every 20 seconds for 10 mins by fluorescence based assay; format: protein-complex assay

Measured: inhibition

Sequence of Calpain-2 catalytic subunit (Homo sapiens) (P17655 whole entry, looked up): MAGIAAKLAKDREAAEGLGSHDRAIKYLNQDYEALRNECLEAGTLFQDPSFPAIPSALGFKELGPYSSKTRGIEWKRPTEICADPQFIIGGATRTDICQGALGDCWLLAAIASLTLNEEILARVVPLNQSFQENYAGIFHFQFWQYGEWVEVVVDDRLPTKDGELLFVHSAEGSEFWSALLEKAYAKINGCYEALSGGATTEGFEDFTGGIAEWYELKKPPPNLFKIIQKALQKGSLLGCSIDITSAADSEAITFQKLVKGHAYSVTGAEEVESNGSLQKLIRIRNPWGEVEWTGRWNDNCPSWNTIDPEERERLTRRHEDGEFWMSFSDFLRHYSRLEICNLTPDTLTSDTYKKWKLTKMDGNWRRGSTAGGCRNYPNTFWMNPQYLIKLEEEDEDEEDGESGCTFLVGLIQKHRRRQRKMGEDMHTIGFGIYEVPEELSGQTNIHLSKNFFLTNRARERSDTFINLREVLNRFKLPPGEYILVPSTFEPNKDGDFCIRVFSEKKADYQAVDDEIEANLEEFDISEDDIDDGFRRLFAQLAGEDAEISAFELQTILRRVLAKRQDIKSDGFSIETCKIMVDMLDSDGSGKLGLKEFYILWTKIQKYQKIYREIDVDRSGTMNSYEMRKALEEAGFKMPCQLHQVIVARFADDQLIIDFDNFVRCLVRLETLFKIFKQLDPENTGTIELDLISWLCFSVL
Sequence of Chymotrypsin (P17538 whole entry, looked up): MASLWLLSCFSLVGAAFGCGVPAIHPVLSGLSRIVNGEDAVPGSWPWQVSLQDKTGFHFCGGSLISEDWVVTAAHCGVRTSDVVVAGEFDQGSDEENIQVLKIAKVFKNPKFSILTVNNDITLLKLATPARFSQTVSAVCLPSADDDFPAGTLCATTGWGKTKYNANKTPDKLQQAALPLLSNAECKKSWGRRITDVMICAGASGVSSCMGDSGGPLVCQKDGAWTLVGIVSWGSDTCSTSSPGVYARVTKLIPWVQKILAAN
Sequence of Chymotrypsin (P40313 whole entry, looked up): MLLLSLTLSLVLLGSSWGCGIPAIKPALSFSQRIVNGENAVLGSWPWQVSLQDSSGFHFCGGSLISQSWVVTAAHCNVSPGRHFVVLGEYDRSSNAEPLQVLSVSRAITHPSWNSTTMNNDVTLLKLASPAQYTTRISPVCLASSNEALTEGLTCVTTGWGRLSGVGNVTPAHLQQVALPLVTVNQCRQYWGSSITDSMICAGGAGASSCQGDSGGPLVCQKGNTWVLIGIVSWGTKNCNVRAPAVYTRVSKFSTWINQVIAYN
Sequence of Chymotrypsin (Q6GPI1 whole entry, looked up): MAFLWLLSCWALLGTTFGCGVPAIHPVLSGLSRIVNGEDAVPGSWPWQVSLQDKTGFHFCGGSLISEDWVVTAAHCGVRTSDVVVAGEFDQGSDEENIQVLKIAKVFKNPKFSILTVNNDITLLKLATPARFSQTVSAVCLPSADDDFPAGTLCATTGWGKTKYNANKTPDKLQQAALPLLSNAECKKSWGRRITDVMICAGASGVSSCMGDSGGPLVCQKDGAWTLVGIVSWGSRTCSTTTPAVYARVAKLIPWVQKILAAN
Sequence of Chymotrypsin (Q99895 whole entry, looked up): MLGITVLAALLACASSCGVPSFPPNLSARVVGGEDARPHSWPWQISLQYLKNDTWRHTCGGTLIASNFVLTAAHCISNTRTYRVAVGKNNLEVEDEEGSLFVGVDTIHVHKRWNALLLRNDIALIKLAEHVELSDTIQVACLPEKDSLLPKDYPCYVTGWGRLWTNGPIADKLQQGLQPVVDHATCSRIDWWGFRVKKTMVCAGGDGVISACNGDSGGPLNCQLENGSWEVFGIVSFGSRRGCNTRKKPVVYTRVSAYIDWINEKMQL

CC(C)C[C@H](NC(=O)[C@H](CCc1ccccc1)NC(=O)CN1CCOCC1)C(=O)N[C@@H](Cc1ccccc1)C(=O)N[C@@H](CC(C)C)C(=O)[C@@]1(C)CO1
inactive: [1] | Chymotrypsin | [2] | [3]

CC(C)C[C@@H](C=O)NC(=O)[C@@H]1Cc2ccc(cc2)Oc2cc(ccc2[N+](=O)[O-])C[C@H](NC(=O)OCc2ccccc2)C(=O)N[C@@H](CC(C)C)C(=O)N1
inactive: [1] | Chymotrypsin

CC(=O)N[C@H]1Cc2ccc([N+](=O)[O-])c(c2)Oc2ccc(cc2)CC[C@@H](C(=O)N[C@@H](CC(C)C)C(=O)[C@@]2(C)CO2)NC(=O)[C@H](CC(C)C)NC1=O
inactive: [1] | [4] | Chymotrypsin | [2] | [3]

CC(=O)N[C@@H](Cc1ccc([N+](=O)[O-])c(F)c1)C(=O)N[C@@H](CC(C)C)C(=O)N[C@@H](CC1C(=O)Nc2ccc(O)cc21)C(=O)N[C@@H](CC(C)C)C(=O)[C@@]1(C)CO1 (some centres undefined)
inactive: [1] | [4] | Chymotrypsin | [2] | [3]

CC(=O)N[C@H]1Cc2ccc([N+](=O)[O-])c(c2)Oc2ccc3c(c2)C(C[C@@H](C(=O)N[C@@H](CC(C)C)C(N)=O)NC(=O)[C@H](CC(C)C)NC1=O)C(=O)N3 (some centres undefined)
inactive: [4] | Chymotrypsin | [2] | [3]

CC(=O)N[C@H]1Cc2ccc([N+](=O)[O-])c(c2)Oc2ccc(cc2)C[C@@H](C(=O)N[C@@H](CC(C)C)C(=O)[C@@]2(C)CO2)NC(=O)[C@H](CC(C)C)NC1=O
inactive: [1] | [4] | Chymotrypsin | [2] | [3]

CC(=O)N[C@H]1Cc2ccc([N+](=O)[O-])c(c2)Oc2ccc3c(c2)C(C[C@@H](C(=O)N[C@@H](CC(C)C)C(=O)[C@@]2(C)CO2)NC(=O)[C@H](CC(C)C)NC1=O)C(=O)N3 (some centres undefined)
inactive: [1] | Chymotrypsin | [2] | [3]
